Measured values taken from publication PMC3914206.

How the values were obtained:
Type in all cases: binding
panel of 442 kinases [1] = biological target: T1, panel of 442 kinases (Homo sapiens, UniProt P45984); conditions: Compound Concentration 10 µM
T1 construct: purchased KINOMEscan
From the text: (§1) We assessed the selectivity of members of this scaffold using the KINOMEscan methodology across a near comprehensive panel of 442 kinases [[18,27]].

panel of 442 kinases [2] = biological target: T2, panel of 442 kinases (Homo sapiens, UniProt Q8NFD2); conditions: Compound Concentration 10 µM
T2 construct: purchased KINOMEscan
T2 sequence (Q8NFD2 1-765): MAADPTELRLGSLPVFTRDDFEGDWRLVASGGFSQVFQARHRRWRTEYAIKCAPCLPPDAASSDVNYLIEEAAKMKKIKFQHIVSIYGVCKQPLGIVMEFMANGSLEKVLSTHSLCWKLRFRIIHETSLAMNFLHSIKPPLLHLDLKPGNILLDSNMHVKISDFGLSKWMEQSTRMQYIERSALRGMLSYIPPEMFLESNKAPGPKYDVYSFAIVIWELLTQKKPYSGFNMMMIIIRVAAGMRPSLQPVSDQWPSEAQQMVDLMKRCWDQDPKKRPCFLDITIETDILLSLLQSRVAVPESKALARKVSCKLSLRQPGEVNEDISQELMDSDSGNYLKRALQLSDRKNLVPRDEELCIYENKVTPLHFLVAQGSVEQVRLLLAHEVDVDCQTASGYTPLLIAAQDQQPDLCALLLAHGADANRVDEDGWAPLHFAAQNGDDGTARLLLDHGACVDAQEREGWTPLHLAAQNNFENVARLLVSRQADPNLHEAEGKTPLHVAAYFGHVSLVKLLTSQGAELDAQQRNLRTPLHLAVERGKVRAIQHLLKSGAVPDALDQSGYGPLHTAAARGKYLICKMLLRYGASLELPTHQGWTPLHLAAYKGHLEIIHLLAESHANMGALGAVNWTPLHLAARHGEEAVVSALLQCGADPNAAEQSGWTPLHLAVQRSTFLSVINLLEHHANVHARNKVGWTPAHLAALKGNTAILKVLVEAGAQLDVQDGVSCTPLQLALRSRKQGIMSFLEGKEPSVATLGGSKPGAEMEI
From the text: as §1

panel of 442 kinases [3] = conditions: for KINOMEscan: EGFR(L747-E749del, A750P) / KINOMEscan: EGFR(L747-S752del, P753S) / KINOMEscan: EGFR(L747-T751del,Sins) / KINOMEscan: FLT3(ITD): Compound Concentration 10 µM; for Number of score not higher than 10: of 442 total assayed kinases, % Ctrl ≤ 10; for Number of score not higher than 10 / S10: compound concentration 10 µM; for S10: selectivity score = (number of kinases with %Ctrl ≤ 10)/total number of kinases tested (442)
From the text: as §1

T1 sequence (P45984 whole entry): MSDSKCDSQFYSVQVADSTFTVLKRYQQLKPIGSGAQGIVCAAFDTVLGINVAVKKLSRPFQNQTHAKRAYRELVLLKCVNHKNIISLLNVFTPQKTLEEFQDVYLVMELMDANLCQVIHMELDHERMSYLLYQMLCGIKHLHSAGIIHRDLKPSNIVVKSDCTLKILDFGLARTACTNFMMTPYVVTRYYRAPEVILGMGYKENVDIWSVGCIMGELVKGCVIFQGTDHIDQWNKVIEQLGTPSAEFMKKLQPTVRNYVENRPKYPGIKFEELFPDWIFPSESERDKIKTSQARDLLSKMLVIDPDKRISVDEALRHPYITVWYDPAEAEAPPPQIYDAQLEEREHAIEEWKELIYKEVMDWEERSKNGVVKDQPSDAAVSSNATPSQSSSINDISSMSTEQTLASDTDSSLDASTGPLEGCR

SMILES | KINOMEscan: JNK2 (panel of 442 kinases [1]) | KINOMEscan: ANKK1 (panel of 442 kinases [2]) | KINOMEscan: EGFR(L747-E749del, A750P) (panel of 442 kinases [3]) | KINOMEscan: EGFR(L747-S752del, P753S) (panel of 442 kinases [3]) | KINOMEscan: EGFR(L747-T751del,Sins) (panel of 442 kinases [3]) | KINOMEscan: FLT3(ITD) (panel of 442 kinases [3]) | Number of score not higher than 10 (panel of 442 kinases [3]) | S10 (panel of 442 kinases [3]) | KINOMEscan selectivity score (S10) (panel of 442 kinases [3]; screened at 10 μM, 442 kinases)
COc1cc(C(=O)N2CCC(N3CCN(C)CC3)CC2)ccc1Nc1ncc2c(n1)N1CCc3cccc(c31)C(=O)N2C [Compound 24] | 42 |  |  |  |  |  |  |  | 
CCOc1cc(C(=O)N2CCC(N3CCN(C)CC3)CC2)ccc1Nc1ncc2c(n1)N(C1CCCC1)c1ccccc1C(=O)N2C [Compound 26] | 63 | 84 | 100 | 100 | 100 | 100 | 3 | 0.007 | 
COc1cc(C(=O)N2CCC(N3CCN(C)CC3)CC2)ccc1Nc1ncc2c(n1)N(C1CCCC1)c1ccccc1C(=O)N2C [Compound 25, 11-cyclopentyl-2-((2-methoxy-4-(4-(4-methylpiperazin-1-yl)piperidine-1-carbonyl)phenyl)amino)-5-methyl-5H-benzo[e]pyrimido[5,4-b][1,4]diazepin-6(11H)-one] | 44 | 85 | 85 | 74 | 76 | 100 | 8 | 0.018 | 0.018
COc1cc(C(=O)N2CCC(N3CCN(C)CC3)CC2)ccc1Nc1ncc2c(n1)N(C)c1ccccc1C(=O)N2C [15 (LRRK2-IN-1)] | 94 | 100 | 78 | 84 | 100 | 100 | 16 | 0.036 | 
